Tests used:
human skin explants = test: Melanin content test on human skin explants exposed to blue light; type: cell-based; details: human skin explants treated with C11 or C12, blue light at 412 nm or 450 nm, total 120 J/cm^2
Procedure: The tests were carried out on human skin explants obtained from plastic surgery. The biopsies are divided into explants of 8 mm diameter and kept for survival in complete medium. at 37° C. and in an atmosphere of 5% CO2.
The skin explants are exposed to blue light, at 412 nm or 450 nm or kept in the dark (control) for 5 hours per day, for 3 days, representing a total irradiation of 120 J/cm^2. Before each exposure, the explants are treated overnight with the compositions C11 or C12.
24 hours after the last irradiation, the explants are collected and incubated in a 1 M NaOH solution at 80° C. for 3 hours, allowing the melanin to solubilize. […]
(§1) The coloring intensity determined by the optical density measured at 405 nm is directly correlated to the melanin content.
(§2) The melanin content is calculated by relating the absorbance value to that of the negative control.
(§3) The percentage variation in melanin content compared to the blank test or the negative control is calculated according to the following equation: […]

[1] = tested on: human epidermal melanocytes (HEM); test: Melanin content test on human epidermal melanocytes exposed to blue light; type: cell-based; details: total 120 J/cm^2
Procedure: In the following experimental part, the preventive effect of ε-viniferine (trans-ε-viniferine) at different concentrations, on the damage caused by blue light at two wavelengths (412 nm, characteristic of solar blue light and 450 nm, characteristic of blue light from screens) was evaluated by means of a test for determining the melanin content of cells treated with a composition of the invention. In order to determine the maximum concentrations to be tested, the toxicity of different concentrations of the compositions tested was first evaluated via the MTT test, a live cell counting test involving the MTT tetrazolium salt as a reagent and well known to the professional.
The tests were carried out on human epidermal melanocytes (HEM), which are cells that produce melanin and are therefore responsible for skin pigmentation. […]
The HEM cells were cultured at 37° C., in a 5% CO2 atmosphere and treated with a determined concentration of the composition C1 or the composition C2. […]
as §1, §2, §3

In the case of Oc1ccc(/C=C/c2cc(O)cc3c2[C@@H](c2cc(O)cc(O)c2)[C@H](c2ccc(O)cc2)O3)cc1 (relative stereo) [ε-viniferine, trans-ε-viniferine], the “melanin content relative to explant not exposed to blue light” value (human skin explants) is reported as “lower the melanin content to the content of an explant not exposed to blue light”, the “production of melanin (optical density at 405 nm)” value ([1]; HEM cells treated 24 h before exposure to blue light at 412 nm or 450 nm, 5 h per day for 3 days, versus untreated irradiated cells (NT)) is reported as “significantly reduce the production of melanin” and the “melanin content relative to culture not exposed to blue light” value ([1]; HEM cells, blue light at 450 nm) is reported as “lower the melanin content to the content of a culture of melanocytes not exposed to blue light”.

Reference: patent US20250275910A1, “Cosmetic application of viniferine” (Tomcat International Limited, priority 2021, published 2025)
